Several values for one entry are separate records, joined by “and”; a condition that tells them apart may be missing. Equal entries are not always repeated.
How the values were obtained:
MCF7 breast cancer model = assay: In vivo efficacy, HR+/HER2− MCF7 breast cancer model (Example 4); set-up: species or system NSG mice; conditions: MCF7, Day 29; PO BID: PF-07104091 120 mpk, PF-07220060 60 mpk, PF-06873600 30 mpk, palbociclib 10 mpk; fulvestrant 10 mpk SC
Method: (§1) Female NSG mice (Jackson Lab) were subcutaneously implanted with fragment (27 mm^3 to 64 mm^3 size) into the dorsal region. All mice for HCC1428, MCF7 and ST941 PBR studies were supplemented with 8.5 μg/mL estradiol water (β-Estradiol Sigma-Aldrich, cat #E2758-5G) and gave ad libitum till end of study. For the in vivo efficacy studies, tumor volume and body weights were measured twice a week. Tumor volume was calculated using the [(Length×Width×Width)/2)] formula. TGI was calculated as 100*(1−ΔT/ΔC). The ΔC (ΔT) was obtained by subtracting the mean tumor burden in the vehicle (treated) group on the first day of treatment (Day 0) from the mean tumor burden in vehicle (treated) group on the assessment day. Statistical analysis was performed using ANCOVA when the mean tumor volume in vehicle treated mice reached tumor cutoff size.
The MCF7 model was established by implanting donor tumor fragments into recipient mice. To establish the MCF7 donor mice, tumor cells (5×10^6 cell/mouse with 50% Cultrex® Basement Membrane Matrix) were subcutaneously implanted in female NSG mice. Once reaching a range of 700 to 800 mm^3, donor tumors were subsequently transplanted into secondary recipient mice for a study expansion. […] PF-07104091 (lot 022), PF-07220060 (lot CPo126812-01-SY-5700-01), PF-06873600 (lot 022) and PD-0332991 (lot GR08498) were administered (PO) BID (7 hr apart) while fulvestrant (lot 20160224-2) at 10 mg/kg, SC twice in the first week, then weekly afterwards. All mice received treatment continuously until Day 29. TGI was assessed on Day 29 post first dose

ABC1 = assay: Combinatorial activity in LUAD cell line ABC1; type: cell-based; conditions: Homo sapiens, ABC-1; ABC1, WT; single agent; read-out: (nM) s.a.
Method: Combinatorial activity of PF-07104091 and PF-07220060 was assessed in LUADs as single agents (s.a.) or in combination.

[1] = system: NCI-H1792 lung adenocarcinoma (LUAD) cells; assay: Spheroid growth inhibition (SGI) assay, NCI-H1792; type: cell-based; conditions: NCI-H1792 spheroids; 30 nM palbociclib, 300 nM PF-07220060, 300 nM PF-07104091; 14 days
Method: NCI-H1792 and NCI-H23 lung adenocarcinoma (LUAD) cells lines were obtained from ATCC and maintained in RPMI 1640 medium supplemented with 10% fetal bovine serum and penicillin-streptomycin as per ATCC guidelines. Cells were maintained in humidified incubator at 37° C. with 5% CO2.
Spheroid assays were performed in 96 well ultralow attachment plates (ULA-96U) from Nexcelom & Thermo Fisher Scientific. […] To aid spheroid formation, dispensed cells were centrifuged at 220×g for 6 minutes in the ultralow attachment plates and allowed to form compact spheroids for 4 days prior to the initiation of treatment. […] DMSO (0.01%) was used as the vehicle control. DMSO and all compounds were diluted in cell medium. Medium and compounds were replenished twice per week, with 3 and 4-day intervals. Replenishment was executed by aspirating 150 μL of medium per well without disturbing the spheroid and then adding the same volume of premixed medium/compound solution to spheroids. Spheroid diameter was quantified immediately following each medium change twice a week (on every 3rd or 4th day) throughout the duration of the assay.
Average diameters of tumor spheroids were plotted in GraphPad Prism 8 and the AUC calculated. AUC baseline was determined by the average tumor spheroid diameter at Day 0 in the vehicle (DMSO) controls. Spheroid growth inhibition, or SGI, was calculated as follows: SGI=(1−AUC treatment/AUC DMSO)×100%. SGI for all treatment arms was derived at the timepoint when the vehicle (DMSO) treated spheroids reach their maximal diameter (usually close to 1 mm but this can differ among cell lines); this corresponds to the last time point taken for the vehicle (DMSO) treated spheroids. SEM was calculated based on n=10 to 12 wells per test group.
Growth of lung adenocarcinoma multicellular tumor spheroids (MCTS) was monitored over time to assess: (i) amplitude of response (SGI) and (ii) duration of response to the CDK4 inhibitor PF-07220060 as a single agent, and in combination with the CDK2 inhibitor PF-07104091.

ST941 PBR PDX model = assay: In vivo efficacy, palbociclib-resistant ST941 PBR PDX model (Example 3); set-up: species or system NSG mice; conditions: ST941PBR, Day 28; PO BID: PF-07104091 150 mpk, PF-07220060 60 mpk, palbociclib 10 mpk; fulvestrant 10 mpk SC 2x week 1 then weekly
Method: as §1, with “T47D, HCC1428” for “HCC1428, MCF7”
We established model in house by continuous treatment of the ST941 PBR tumor bearing mice with PD-0332991 at 50 mg/kg, PO QD plus fulvestrant at 10 mg/kg, SC twice in the first week, then weekly thereafter. To propagate donors for the TGI study, tumors were transplanted to recipient mice. One week after the re-implantation, the recipient mice received continuous treatment with palbociclib plus fulvestrant (dosing schedule described above). After 1 to 2 serial in vivo propagation with the same treatment regimen, the resistant tumors in the range of 700 to 800 mm^3 were re-implanted for a study expansion. The remaining tumor fragments were viably frozen for future use.
The live donor mice were established by implanting ST941 PBR (p11) tumor fragments. Once reaching a range of 700 to 800 mm^3, the donor tumors were subsequently transplanted into secondary recipient mice for a study expansion. To maintain the resistant clones, the ST941 PBR tumor bearing mice were treated with PD-0332991 at 50 mg/kg, PO. QD plus fulvestrant at 10 mg/kg, SC twice in the first week, then weekly afterwards for 10 weeks. The treatment was initiated one week after the implant until day of randomization for study enrollment. […] TGI was assessed on Day 28 post first dose.

| Structure (SMILES) | TGI % (MCF7 breast cancer model) | IC50 (ABC1) | SGI (%) [1] | TGI % (ST941 PBR PDX model) |
| --- | --- | --- | --- | --- |
| COCc1cc(C(=O)Nc2cc([C@H]3CC[C@@H](OC(=O)NC(C)C)C3)[nH]n2)n(C)n1 [PF-07104091, (1R,3S)-3-[3-({[3-(methoxymethyl)-1-methyl-1H-pyrazol-5-yl]carbonyl}amino)-1H-pyrazol-5-yl]cyclopentyl propan-2-ylcarbamate] | 60% | 716 nM | 12% | 34% and 24^* % |
| CC(C)n1c(C(C)(C)O)nc2c(F)cc(-c3nc(N[C@@H]4CCOC[C@H]4O)ncc3Cl)cc21 [PF-07220060, 1,5-anhydro-3-({5-chloro-4-[4-fluoro-2-(2-hydroxypropan-2-yl)-1-(propan-2-yl)-1H-benzimidazol-6-yl]pyrimidin-2-yl}amino)-2,3-dideoxy-D-threo-pentitol] | 79% | 408 nM | 81% | 28% |

Source: patent publication US20250041277A1, “METHODS AND DOSING REGIMENS COMPRISING A CDK2 INHIBITOR AND A CDK4 INHIBITOR FOR TREATING CANCER” (PFIZER INC., priority 2021, published 2025)
